This passage reports viability, T/C and IC50 results from PubChem BioAssay AID1963960 (Molecular Pharmacology Branch, DTP, NCI, 2024).

For this assay, the system named is MDA-MB-468 spheroids with HUVEC/MSC, viability. In words: Anticancer human tumor MDA-MB-468 cell line growth inhibition [PI3K].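 For all read-outs here: spheroids exposed to agents for seven days before readout.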 As to conditions: for viability, T/C: stronger effect = lower value. An excerpt:
Combinatorial screen of targeted agents with the PI3K inhibitors inavolisib, alpelisib, duvelisib, and copanlisib in multi-cell type tumor spheroids
A high-throughput screen of multi-cell type tumor spheroids was designed to identify active combinations of targeted small molecules and PI3K pathway inhibitors. Complex spheroids include a stromal component modeled by human endothelial cells (HUVEC) and fibroblasts modeled by human mesenchymal stem cells (MSCs). The concentration ranges selected for each drug and investigational agent were based upon clinically achievable concentrations if the clinical Cmax of the agent was known.
Compounds. The drugs and investigational agents: inavolisib (NSC800729), alpelisib (NSC765974), duvelisib (NSC772469), copanlisib (NSC816437), ipatasertib (NSC767898), afuresertib (NSC778305), talazoparib (NSC767125), sapanisertib (NSC764658), selumetinib (NSC741078), tovorafenib (DAY101, NSC766906), vemurafenib (NSC761431), ravoxertinib (NSC781343), sotorasib (NSC818433), MRTX1133 (NSC 836407), abemaciclib (NSC 768073), palbociclib (NSC758247), venetoclax (NSC 766270), SY5609 (NSC837396), enzalutamide (NSC755605), and darolutamide (NSC825331), were obtained from the National Cancer Institute (NCI) Developmental Therapeutics Program Chemical Repository. The FDA-approved anticancer drug set is available from the NCI Developmental Therapeutics Program. […] The stock solutions were prepared in dimethyl sulfoxide (DMSO, Sigma-Aldrich, St. Louis, MO, cat. D2650) at 800-fold the tested concentration and stored at -70 degrees C prior to their use. All drugs and investigational agents were tested over a range starting from a high concentration at or near the clinical Cmax and decreasing in half-log increments. If the clinical Cmax for an agent had not been determined, the highest concentration tested was 10 microM.
Cell Culture. All cells were maintained in an incubator at 37 degrees C and 5% CO2 with 95% humidity. The PDC lines were cultured according to standard operating procedures established by the NCI PDMR (https://pdmr.cancer.gov/sops/default.htm). All PDCs were thawed and cultured in Matrigel-coated flasks prepared with a working solution of 1X Ham's F-12 nutrient mix, without supplementation (Invitrogen, Waltham, MA, cat. 11765054), 100 U/mL penicillin-streptomycin (Invitrogen, cat. 15140122), and 2.5% Matrigel (Corning Inc., Corning, NY, cat. 354248) for the first three passages. The 354836-022-R-J1-PDC, 475296-252-R-J1-PDC, and 997726-040-R-J2-PDC lines were cultured in 6A media, which includes advanced DMEM/F-12 (Thermo Fisher Scientific, cat. 12634028), 10 mM HEPES (Thermo Fisher Scientific, cat. 15630080), 1X GlutaMAX supplement (Thermo Fisher Scientific, cat. 35050061), 0.1 mg/mL primocin (InvivoGen, San Diego, CA, cat. ant-pm-2), 10% defined fetal bovine serum, heat inactivated (HyClone Laboratories Inc., Logan, UT, cat. SH30070.03HI), 50% L-WRN conditioned media (ATCC, cat. CRL-3276), 1.25 mM N-Acetyl-L-cysteine (Sigma-Aldrich, cat. A9165), 10 mM nicotinamide (Sigma-Aldrich, cat. N0636), 1X B-27 supplement (Thermo Fisher Scientific, cat. 17504044), 1X N-2 supplement (Thermo Fisher Scientific, cat. 17502048), and 10 microM Y-27632 dihydrochloride (Tocris Bioscience, Bristol, United Kingdom, cat. 1254). The 624824-186-R-J2-PDC line was cultured in 6C/Colon 1B media, which includes all 6A media components plus 50 ng/mL human EGF recombinant protein (Thermo Fisher Scientific, cat. PHG0311). […]

Structures are written as SMILES. Where “and” joins values, the source holds several entries; their conditions need not be identical. Equal entries are not always repeated.

Usually viability, T/C stands for the ratio of treated to control. As a reminder, the IC50 is the concentration that gives 50% inhibition. Turning to `CC(=O)c1c(C)c2cnc(Nc3ccc(N4CCNCC4)cn3)nc2n(C2CCCC2)c1=O`, the viability, T/C runs as follows: (compound 0.000316 µM) 106% [middle of 4 runs]; (compound 0.001 µM) 93.5% [middle of 4 runs]; (compound 0.00316 µM) 110% [middle of 4 runs]; (compound 0.01 µM) 91% [middle of 4 runs]; (compound 0.0316 µM) 99.3% [middle of 4 runs]; (compound 0.1 µM) 97.2% [middle of 4 runs]. In addition, the IC50 (curve of compound) is above 0.1 µM.
As for `CC(C)n1nc(-c2ccc3oc(N)nc3c2)c2c(N)ncnc21`, the viability, T/C is 101% [middle of 4 runs] (compound 0.000316 µM); 93% [middle of 4 runs] (compound 0.00316 µM); 81.4% [middle of 4 runs] (compound 0.01 µM); 64.6% [middle of 4 runs] (compound 0.0316 µM); 19.3% [middle of 4 runs] (compound 0.1 µM). Further, the IC50 (curve of compound) is 44.4 nM [middle of 4 runs].
`CC(Nc1ccc2c(c1)OCCn1cc(N3C(=O)OCC3C(F)F)nc1-2)C(N)=O` (configuration not stated): the viability, T/C (compound 0.00316 µM) was 96.8% [middle of 8 runs]; the viability, T/C (compound 0.01 µM) was 88.1% [middle of 8 runs]; the viability, T/C (compound 0.0316 µM) is 84.2% [middle of 8 runs]; the viability, T/C (compound 0.1 µM) is 91.4% [middle of 8 runs]; the viability, T/C (compound 0.316 µM) was 93.4% [middle of 8 runs]; the viability, T/C (compound 1 µM) is 90.8% [middle of 8 runs]. Also, the IC50 (compound alone, run of 05/08/2023) was above 1 µM.
In the case of `CCN1CCN(Cc2ccc(Nc3ncc(F)c(-c4cc(F)c5nc(C)n(C(C)C)c5c4)n3)nc2)CC1`, the viability, T/C was 98.5% and 101% (2×) and 106% (compound 0.00316 µM); 99.3% [middle of 4 runs] (compound 0.0316 µM); 108% [middle of 4 runs] (compound 0.316 µM); 66.1% [middle of 4 runs] (compound 1 µM). Besides, the IC50 (curve of compound) was above 1 µM.
As to `COc1c(OCCCN2CCOCC2)ccc2c3n(c(=NC(=O)c4cnc(N)nc4)nc12)CCN3`, the viability, T/C is, setting by setting: (compound 0.00316 µM) 99.8% [middle of 8 runs]; (compound 0.01 µM) 90.4% [middle of 8 runs]; (compound 0.0316 µM) 76.7% [middle of 8 runs]; (compound 0.1 µM) 57.7% [middle of 8 runs]; (compound 0.316 µM) 23.9% [middle of 8 runs]; (compound 1 µM) 3.27% [middle of 8 runs]. Besides, the IC50 (compound alone, run of 05/09/2023) is 122 nM [middle of 7 runs].
With `Cc1nc(NC(=O)N2CCCC2C(N)=O)sc1-c1ccnc(C(C)(C)C(F)(F)F)c1` (configuration not stated), the viability, T/C was 89% [middle of 8 runs] (compound 0.0316 µM); 83.7% [middle of 8 runs] (compound 0.1 µM); 81.1% [middle of 8 runs] (compound 0.316 µM); 77.9% [middle of 8 runs] (compound 1 µM); 70.2% [middle of 7 runs] (compound 3.16 µM); 44.1% [middle of 8 runs] (compound 10 µM).
As to `Cn1cnc2c(F)c(Nc3ccc(Br)cc3Cl)c(C(=O)NOCCO)cc21`, the viability, T/C (compound 0.00949 µM) was 82.8% [middle of 4 runs]; the viability, T/C (compound 0.03 µM) is 83.3% [middle of 4 runs]; the viability, T/C (compound 0.0949 µM) was 86.8% [middle of 4 runs]; the viability, T/C (compound 0.3 µM) was 87.3% [middle of 4 runs]; the viability, T/C (compound 0.949 µM) was 88.8% [middle of 4 runs]; the viability, T/C (compound 3 µM) is 64.7% [middle of 4 runs]. Besides, the IC50 (curve of compound) is above 3 µM.
Regarding `Cn1ncnc1[C@H]1c2n[nH]c(=O)c3cc(F)cc(c23)N[C@@H]1c1ccc(F)cc1`, the viability, T/C was 95.9% [middle of 4 runs] (compound 0.000316 µM); 93.9% [middle of 4 runs] (compound 0.001 µM); 85.1% [middle of 4 runs] (compound 0.00316 µM); 82.2% [middle of 4 runs] (compound 0.01 µM); 87.3% [middle of 4 runs] (compound 0.0316 µM); 56.5% [middle of 4 runs] (compound 0.1 µM). For the setting “curve of compound”, the IC50 was above 0.1 µM.
